Test results reported in patent US12036226B2, “Methods of treating subjects having diabetes with chronic kidney disease” (Poxel SA, priority 2018, dated 2024).

Legend:
[1] = tested on: Japanese patients with type 2 diabetes (T2DM); assay: 24-week Phase III placebo-controlled monotherapy study in Japanese patients with type 2 diabetes; assay type: in vivo, human; conditions: for HbA1c LSM Difference vs. Placebo, Week 24 / Change in HbA1c from baseline, Week 24 LS Mean (SE) / HbA1c LSM Difference vs. Placebo (SE), Week 24: 1000 mg BID
Protocol: A 24-Week Phase III, Randomized, Double-Blind, Placebo-Controlled, Monotherapy Study to Assess the Efficacy, Safety and Tolerability of Imeglimin Administered Orally in Japanese Patients with Type 2 Diabetes (T2DM)
A total of 213 subjects were randomized in a 1:1 ratio to receive either imeglimin (1000 mg BID) or placebo BID for 24 weeks, with 194 subjects completing the study without Investigational Medicinal Product (IMP) discontinuation. The primary objective of this study was to determine the change in HbA1c from baseline after 24 weeks of imeglimin treatment compared to placebo. Secondary endpoints of the trial included fasting plasma glucose along with other standard glycemic and non-glycemic parameters. Subjects were to have an eGFR of ≥50 mL/min/1.73 m^2 at Screening and ≥45 mL/min/1.73 m^2 at Pre-randomization.

[2] = Metabolism in standard in vitro assays; assay type: in vitro ADME
subjects with T2DM = assay: 24-week Phase IIb dose-ranging placebo-controlled study in subjects with T2DM; assay type: in vivo, human; conditions: for Mean HbA1c Change from Baseline: Week 24, T2D and Stage 2 and 3a CKD
Protocol: A 24-Week, Phase IIb, Dose-Ranging, Randomized, Double-blind, Placebo-controlled, Parallel-group Safety and Efficacy Study in Subjects with T2DM
The five parallel groups included 4 groups of imeglimin doses (500, 1000, 1500, or 2000 mg twice daily) and 1 placebo group. The primary endpoint was to assess the dose-response in T2D subjects, using change in HbA1c from baseline to week 24 as the primary evaluation criterion. Subjects could be either treatment naïve or treated with any oral antidiabetic monotherapy and were to have an eGFR of ≥50 mL/min/1.73 m^2. A total of 382 subjects were randomized 1:1:1:1:1 to one of the 5 study arms, with 315 subjects completing the study.

## C[C@H]1N=C(N(C)C)N=C(N)N1 [imeglimin, (6R)—N^2, N^2,6-trimethyl-3,6-dihydro-1,3,5-triazine-2,4-diamine]
[1]; CKD Stage 2 (eGFR = 60-90 mL/min/1.73 m^2)
  HbA1c LSM Difference vs. Placebo, Week 24: −0.96%
[1]; CKD Stage 2 (eGFR = 60-90 mL/min/1.73 m^2), N 66
  Change in HbA1c from baseline, Week 24 LS Mean (SE): −0.82 (0.08) %
[1]; CKD Stage 2 (eGFR = 60-90 mL/min/1.73 m^2), listed as Imeglimin
  HbA1c LSM Difference vs. Placebo, Week 24: −0.96 (0.11) %
[1]; CKD Stage 3a (eGFR < 60 mL/min/1.73 m^2)
  HbA1c LSM Difference vs. Placebo, Week 24: −0.70%
[1]; CKD Stage 3a (eGFR < 60 mL/min/1.73 m^2), N 21
  Change in HbA1c from baseline, Week 24 LS Mean (SE): −0.66 (0.13) %
[1]; CKD Stage 3a (eGFR < 60 mL/min/1.73 m^2), listed as Imeglimin
  HbA1c LSM Difference vs. Placebo, Week 24: −0.70 (0.19) %
[1]; Normal eGFR (eGFR > 90 mL/min/1.73 m^2)
  HbA1c LSM Difference vs. Placebo (SE), Week 24: −0.59%
[1]; Normal eGFR (eGFR > 90 mL/min/1.73 m^2), N 11
  Change in HbA1c from baseline, Week 24 LS Mean (SE): −0.33 (0.20) %
[1]; Normal eGFR (eGFR > 90 mL/min/1.73 m^2), listed as Imeglimin
  HbA1c LSM Difference vs. Placebo (SE), Week 24: −0.59 (0.32) %
[1]; pre-specified analysis, stage 2 and 3a CKD (eGFR <90 mL/min/1.73 m^2, n=178)
  A1C lowering compared to placebo: improvement in A1C lowering as compared to placebo
[2]
  metabolism: no appreciable metabolism
Subjects with T2DM; 500 mg BID (n = 44)
  Mean HbA1c Change from Baseline: 0.007%
Subjects with T2DM; 1000 mg BID (n = 43)
  Mean HbA1c Change from Baseline: −0.072%
Subjects with T2DM; 1500 mg BID (n = 41)
  Mean HbA1c Change from Baseline: −0.502%
Subjects with T2DM; 2000 mg BID (n = 42)
  Mean HbA1c Change from Baseline: −0.193%
Subjects with T2DM; post-hoc analysis, stage 2 and 3a CKD (eGFR <90 mL/min/1.73 m^2, n=211)
  HbA1c lowering compared to placebo: improvement in HbA1c lowering as compared to placebo
